# From patent US12552783B2, “Modulators of proteolysis and associated methods of use” (Arvinas Operations, Inc., priority 2018, dated 2026)
# Target: KRas (Homo sapiens, UniProt P01116, G12C)
# Assay: KRas degradation in NCI-H2030 cells by Western blot, normalized to GAPDH (data of Table 14)
# Format: cell-based
# Parameters: host or cells: NCI-H2030
# Conditions: for Dmax: NCI-H2030
# Outline: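 Both lines are homozygous for KRas G12C and were serum-starved for 24 h before treatment with compound at 0.3, 1 or 3 μM in 0.1% DMSO: 24 h for VHL-based compounds, 72 h for the rest. Western blot of 10 μg lysate gave KRas signal normalized to GAPDH, and percent degradation was expressed relative to the DMSO control.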
Structure (SMILES),"Percent Degradation at Indicated Concentration (μM) (H2030, 0.3 μM)","Percent Degradation at Indicated Concentration (μM) (H2030, 1 μM)","Percent Degradation at Indicated Concentration (μM) (H2030, 3 μM)",Dmax [%],"Percent Degradation at Indicated Concentration (μM): 0.3 (H2030 cells, 0.3 μM)","Percent Degradation at Indicated Concentration (μM): 1 (H2030 cells, 1 μM)",Dmax (H2030 cells) [%],other results
"CN(CCOCCOc1ccc2c(c1)C(=O)N(C1CCC(=O)NC1=O)C2=O)C(=O)CCNc1nc(N2CCN(C(N)=O)CC2)c2cc(Cl)c(-c3cc(O)cc4ccccc34)c(F)c2n1 (centres unmarked) [compound 27, 4-(6-chloro-2-((3-((2-(2-((2-(2,6-dioxopiperidin-3-yl)-1,3-dioxoisoindolin-5-yl)oxy)ethoxy)ethyl)(methyl)amino)-3-oxopropyl)amino)-8-fluoro-7-(3-hydroxynaphthalen-1-yl)quinazolin-4-yl)piperazine-1-carboxamide]",C (Percent Degradation: C ≤ 35),C (Percent Degradation: C ≤ 35),C (Percent Degradation: C ≤ 35),≤ 35,,,,
"C=CC(=O)N1CCN(c2nc(NCCC(=O)N(C)CCOCCOCCOc3cc(-c4scnc4C)ccc3CNC(=O)[C@@H]3C[C@@H](O)CN3C(=O)[C@H](c3cc(C)no3)C(C)C)nc3c(F)c(-c4cc(O)cc5ccccc45)c(Cl)cc23)CC1 [compound 342, (2S,4R)-N-(2-(2-(2-(2-(3-((4-(4-acryloylpiperazin-1-yl)-6-chloro-8-fluoro-7-(3-hydroxynaphthalen-1-yl)quinazolin-2-yl)amino)-N-methylpropanamido)ethoxy)ethoxy)ethoxy)-4-(4-methylthiazol-5-yl)benzyl)-4-hydroxy-1-((S)-3-methyl-2-(3-methylisoxazol-5-yl)butanoyl)pyrrolidine-2-carboxamide]",C (Percent Degradation: C ≤ 35),C (Percent Degradation: C ≤ 35),C (Percent Degradation: C ≤ 35),≤ 35,,,,
"CN(CCOCCOc1ccc2c(c1)CN(C1CCC(=O)NC1=O)C2=O)C(=O)CCNc1nc(N2CCN(C(N)=O)CC2)c2cc(Cl)c(-c3cc(O)cc4ccccc34)c(F)c2n1 (centres unmarked) [compound 37, 4-(6-chloro-2-((3-((2-(2-((2-(2,6-dioxopiperidin-3-yl)-1-oxoisoindolin-5-yl)oxy)ethoxy)ethyl)(methyl)amino)-3-oxopropyl)amino)-8-fluoro-7-(3-hydroxynaphthalen-1-yl)quinazolin-4-yl)piperazine-1-carboxamide]",C (Percent Degradation: C ≤ 35),C (Percent Degradation: C ≤ 35),C (Percent Degradation: C ≤ 35),≤ 35,,,,
"CCC(=O)N1CCN(c2nc(NCCC(=O)N(C)CCOCCNc3cccc4c3C(=O)N(C3CCC(=O)NC3=O)C4=O)nc3c(F)c(-c4cc(O)cc5ccccc45)c(Cl)cc23)CC1 (centres unmarked) [compound 42, 3-((6-chloro-8-fluoro-7-(3-hydroxynaphthalen-1-yl)-4-(4-propionylpiperazin-1-yl)quinazolin-2-yl)amino)-N-(2-(2-((2-(2,6-dioxopiperidin-3-yl)-1,3-dioxoisoindolin-4-yl)amino)ethoxy)ethyl)-N-methylpropanamide]",,,,,C (C ≤ 35),C (C ≤ 35),≤ 35,"Percent Degradation at Indicated Concentration (μM): 3 (H2030 cells, 3 μM): C (C ≤ 35)"
"Cc1ncsc1-c1ccc([C@H](C)NC(=O)[C@@H]2C[C@@H](O)CN2C(=O)[C@@H](NC(=O)COCCOCCOCCN(C)C(=O)CCNc2nc(N3CCN(C(=O)C(O)O)CC3)c3cc(Cl)c(-c4c(O)cccc4F)c(F)c3n2)C(C)(C)C)cc1 (atropisomer, axis not shown) [compound 239, (2S4R)-1-((S)-2-(tert-butyl)-18-((6-chloro-4-(4-(2,2-dihydroxyacetyl)piperazin-1-yl)-8-fluoro-7-((R)-2-fluoro-6-hydroxyphenyl)quinazolin-2-yl)amino)-15-methyl-4,16-dioxo-6,9,12-trioxa-3,15-diazaoctadecanoyl)-4-hydroxy-N-((S)-1-(4-(4-methylthiazol-5-yl)phenyl)ethyl)pyrrolidine-2-carboxamide,]",,,,,,,≤ 35,"Percent Degradation at Indicated Concentration (μM) (H2030 cells, 0.3 μM): C (Percent Degradation: C ≤ 35); Percent Degradation at Indicated Concentration (μM) (H2030 cells, 1 μM): C (Percent Degradation: C ≤ 35); Percent Degradation at Indicated Concentration (μM) (H2030 cells, 3 μM): C (Percent Degradation: C ≤ 35)"
"COc1cc(-c2scnc2C)ccc1[C@H](C)NC(=O)[C@@H]1C[C@@H](O)CN1C(=O)[C@@H](c1cc(OCCOCCOCCOCCOCCN(C)C(=O)CCNc2nc(N3CCN(C(C)=O)CC3)c3cc(Cl)c(-c4cc(O)cc5ccccc45)c(F)c3n2)no1)C(C)C [compound 391, (2S,4R)-1-((2R)-2-(3-((18-((4-(4-acetylpiperazin-1-yl)-6-chloro-8-fluoro-7-(3-hydroxynaphthalen-1-yl)quinazolin-2-yl)amino)-15-methyl-16-oxo-3,6,9,12-tetraoxa-15-azaoctadecyl)oxy)isoxazol-5-yl)-3-methylbutanoyl)-4-hydroxy-N-((S)-1-(2-methoxy-4-(4-methylthiazol-5-yl)phenyl)ethyl)pyrrolidine-2-carboxamide]",C (Percent Degradation: C ≤ 35),C (Percent Degradation: C ≤ 35),C (Percent Degradation: C ≤ 35),≤ 35,,,,
"C=CC(=O)N1CCN(c2nc(NCCC(=O)N(C)CCOCCOCCOCCOCCNc3cccc4c3C(=O)N(C3CCC(=O)NC3=O)C4=O)nc3c(F)c(-c4cc(O)cc5ccccc45)c(Cl)cc23)CC1 (centres unmarked) [compound 59, 3-((4-(4-acryloylpiperazin-1-yl)-6-chloro-8-fluoro-7-(3-hydroxynaphthalen-1-yl)quinazolin-2-yl)amino)-N-(14-((2-(2,6-dioxopiperidin-3-yl)-1,3-dioxoisoindolin-4-yl)amino)-3,6,9,12-tetraoxatetradecyl)-N-methylpropanamide]",,,,,C (C ≤ 35),C (C ≤ 35),≤ 35,"Percent Degradation at Indicated Concentration (μM): 0.1 (H2030 cells, 0.1 μM): C (C ≤ 35)"
"C=CC(=O)N1CCN(c2nc(NCCC(=O)N(C)CCOCCOCCNc3cccc4c3C(=O)N(C3CCC(=O)NC3=O)C4=O)nc3c(F)c(-c4c(O)cccc4F)c(Cl)cc23)CC1 [compound 111, 3-(((S)-4-(4-acryloylpiperazin-1-yl)-6-chloro-8-fluoro-7-(2-fluoro-6-hydroxyphenyl)quinazolin-2-yl)amino)-N-(2-(2-(2-((2-(2,6-dioxopiperidin-3-yl)-1,3-dioxoisoindolin-4-yl)amino)ethoxy)ethoxy)ethyl)-N-methylpropanamide]",C (Percent Degradation: C ≤ 35),C (Percent Degradation: C ≤ 35),C (Percent Degradation: C ≤ 35),≤ 35,,,,

# Now from value to compound, other results behind:
"Percent Degradation at Indicated Concentration (μM) (H2030, 0.3 μM)","Percent Degradation at Indicated Concentration (μM) (H2030, 1 μM)","Percent Degradation at Indicated Concentration (μM) (H2030, 3 μM)",Dmax [%],"Percent Degradation at Indicated Concentration (μM): 0.3 (H2030 cells, 0.3 μM)","Percent Degradation at Indicated Concentration (μM): 1 (H2030 cells, 1 μM)",Dmax (H2030 cells) [%],Structure (SMILES),other results
,,,,C (C ≤ 35),C (C ≤ 35),≤ 35,"CCC(=O)N1CCN(c2nc(NCCC(=O)N(C)CCOCCOCCOCC(=O)N[C@H](C(=O)N3C[C@H](O)C[C@H]3C(=O)N[C@@H](C)c3ccc(-c4scnc4C)cc3)C(C)(C)C)nc3c(F)c(-c4cc(O)cc5ccccc45)c(Cl)cc23)CC1 [compound 188, (2S,4R)-1-((2S)-2-(tert-butyl)-18-((6-chloro-8-fluoro-7-(3-hydroxynaphthalen-1-yl)-4-(4-propionylpiperazin-1-yl)quinazolin-2-yl)amino)-15-methyl-4,16-dioxo-6,9,12-trioxa-3,15-diazaoctadecanoyl)-4-hydroxy-N-((S)-1-(4-(4-methylthiazol-5-yl)phenyl)ethyl)pyrrolidine-2-carboxamide]","Percent Degradation at Indicated Concentration (μM): 3 (H2030 cells, 3 μM): C (C ≤ 35)"
C (Percent Degradation: C ≤ 35),C (Percent Degradation: C ≤ 35),C (Percent Degradation: C ≤ 35),≤ 35,,,,"CC(=O)N1CCN(c2nc(NCCC(=O)N(C)CCOCCOCCOCC(=O)N[C@H](C(=O)N3C[C@H](O)C[C@H]3C(=O)N[C@@H](C)c3ccc(-c4scnc4C)cc3)C(C)(C)C)nc3c(F)c(-c4cc(O)cc5ccccc45)c(Cl)cc23)CC1 [compound 202, (2S,4R)-1-((2S)-18-((4-(4-acetylpiperazin-1-yl)-6-chloro-8-fluoro-7-(3-hydroxynaphthalen-1-yl)quinazolin-2-yl)amino)-2-(tert-butyl)-15-methyl-4,16-dioxo-6,9,12-trioxa-3,15-diazaoctadecanoyl)-4-hydroxy-N-((S)-1-(4-(4-methylthiazol-5-yl)phenyl)ethyl)pyrrolidine-2-carboxamide]",
,,,,C (C ≤ 35),C (C ≤ 35),≤ 35,"CCC(=O)N1CCN(c2nc(NCCC(=O)N(C)CCOCCOCCOCCOCC(=O)N[C@H](C(=O)N3C[C@H](O)C[C@H]3C(=O)N[C@@H](C)c3ccc(-c4scnc4C)cc3)C(C)(C)C)nc3c(F)c(-c4cc(O)cc5ccccc45)c(Cl)cc23)CC1 [compound 189, (2S,4R)-1-((2S)-2-(tert-butyl)-21-((6-chloro-8-fluoro-7-(3-hydroxynaphthalen-1-yl)-4-(4-propionylpiperazin-1-yl)quinazolin-2-yl)amino)-18-methyl-4,19-dioxo-6,9,12,15-tetraoxa-3,18-diazahenicosanoyl)-4-hydroxy-N-((S)-1-(4-(4-methylthiazol-5-yl)phenyl)ethyl)pyrrolidine-2-carboxamide]","Percent Degradation at Indicated Concentration (μM): 3 (H2030 cells, 3 μM): C (C ≤ 35)"
